Assay [1] relates to Klebsiella pneumoniae MFBF 10402. The experiment in a line: Serial broth microdilution with agar sub-cultivation. In kind it is cell-based. On the technique in general: In broth dilution the organism is exposed to a series of concentrations in liquid medium.
Assay [2] deals with Pseudomonas aeruginosa ATCC 27853. The description is as above. To be noted: for MIC: ATCC27853, aerial parts extracts, TTC detection, n.d. = growth inhibition not detected (0.36–22.73 mg/mL). In kind it is cell-based.
Assay [3] deals with Enterococcus faecalis ATCC 29212. The assay is described as above. In kind it is cell-based. The settings on record: ATCC29212, n.d. = not detected (0.18–11.36 mg/mL).
For assay [4], the system named is Bacillus subtilis ATCC 6633. The assay is described as above. In kind it is cell-based.
For assay [5], the system named is Bacillus cereus ATCC 11778. The description is as above. In kind it is cell-based.
The subject of assay [6] is Escherichia coli ATCC 10536. The description is as above. In kind it is cell-based. To be noted: for MIC: ATCC10536, aerial parts extracts, TTC detection, n.d. = growth inhibition not detected (0.18–11.36 mg/mL).
Assay [7] deals with Bacillus cereus ATCC 11778. The experiment in a line: Well diffusion method. In kind it is cell-based. To be noted: aerial parts extracts c = 50 mg/mL; antibiotics c = 0.2 mg/mL; n.d. = growth inhibition not detected. As to the method: (§1) Antibacterial activity was evaluated using the following strains: Bacillus cereus American Type Culture Collection (ATCC, Manassas, VA, USA) 11778, B. subtilis ATCC 6633, Enterococcus faecalis ATCC 29212, Staphylococcus aureus ATCC 6538 and S. aureus ATCC 29213 among Gram-positive and Escherichia coli ATCC 10536, Klebsiella pneumoniae MFBF 10402 and Pseudomonas aeruginosa ATCC 27853 among Gram-negative bacterial species. Additionally, eight clinical isolates of S. aureus, including methicillin-resistant S. aureus (MRSA MFB F101, MRSA MFBF 124, MRSA MFBF 154, MRSA MFBF 164, and MRSA MFBF 177) and methicillin susceptible S. aureus (S. aureus MFBF 505, S. aureus MFBF 10661 and S. aureus MFBF 10666) were used. Bacterial strains were sourced from the Collection of Microorganisms, Department of Microbiology, Faculty of Pharmacy and Biochemistry, University of Zagreb. Inoculums were prepared from overnight cultures that were cultured on tryptic soy agar (TSA) at 37 °C, suspended in sterile physiological saline, with the optic density adjusted to 0.5 McFarland (1.5 × 10^8 colony-forming units (CFUs)/mL) using a densitometer (Densimat, BioMérieux, Marcy-l’Étoile, France). Right before cultivation in nutrient medium, 1 mL of each prepared suspension was dissolved with 9 mL physiological saline. Prior to cell treatment, sample stock solutions in distilled water (c = 50 mg/mL) were filtered through Chromafil cellulose acetate filters of pore size 0.22 μm (Macherey-Nagel, Düren, Germany).
(§2) Well diffusion method was carried out according to the European Pharmacopoeia. Inoculums (100 μL) were transferred to individual petri dishes with 4 mm thick Müller–Hinton agar and equally distributed across agar surface with a glass L-stick. Wells were prepared using sterile stainless-steel cylinders (d = 6 mm) and filled with 50 μL of methanolic aerial parts extract solution (c = 50 mg/mL) in distilled water. Plates were incubated at 37 °C for 18 h in the dark. Diameters of the zones of inhibition of bacterial growth (mm) were read from the diameters of transparent zones around the wells. Gentamicin and norfloxacin (c = 0.2 mg/mL) were used as positive controls.
On the technique in general: A growth-free zone around the sample is the usual read-out of agar diffusion tests.

Assay [8] concerns Escherichia coli ATCC 10536. Kind of assay: Well diffusion method. In kind it is cell-based. The settings on record: aerial parts extracts c = 50 mg/mL; antibiotics c = 0.2 mg/mL; n.d. = growth inhibition not detected. As to the method: as §1, §2
The test system of assay [9] is Enterococcus faecalis ATCC 29212. The experiment in a line: Well diffusion method. The settings on record: aerial parts extracts c = 50 mg/mL; antibiotics c = 0.2 mg/mL; n.d. = growth inhibition not detected. In kind it is cell-based. As to the method:
as §1, §2

The test system of assay [10] is Klebsiella pneumoniae MFBF 10402. Kind of assay: Well diffusion method. In kind it is cell-based. The settings on record: aerial parts extracts c = 50 mg/mL; antibiotics c = 0.2 mg/mL; n.d. = growth inhibition not detected. As to the method: as §1, §2
Assay [11] has as its system Staphylococcus aureus ATCC 6538. The experiment in a line: Well diffusion method. In kind it is cell-based. To be noted: aerial parts extracts c = 50 mg/mL; antibiotics c = 0.2 mg/mL. The method, then: as §1, §2
Assay [12] relates to Bacillus subtilis ATCC 6633. The experiment in a line: Well diffusion method. In kind it is cell-based. The settings on record: aerial parts extracts c = 50 mg/mL; antibiotics c = 0.2 mg/mL; n.d. = growth inhibition not detected. The method, then:
as §1, §2

For assay [13], the system named is Pseudomonas aeruginosa ATCC 27853. The experiment in a line: Well diffusion method. In kind it is cell-based. The settings on record: aerial parts extracts c = 50 mg/mL; antibiotics c = 0.2 mg/mL; n.d. = growth inhibition not detected. The method, then: as §1, §2
Assay [14] deals with Staphylococcus aureus ATCC 6538. The experiment in a line: Serial broth microdilution with agar sub-cultivation. The settings on record: for MIC: ATCC6538, aerial parts extracts, TTC detection. In kind it is cell-based.
For assay [15], the system named is Staphylococcus aureus ATCC 29213. Described as above. In kind it is cell-based. To be noted: for MIC: ATCC29213, aerial parts extracts, TTC detection; for MBC: ATCC29213, agar sub-cultivation.
For another assay, the system named is five MRSA strains. On the set-up: method as in PMID 18404351. The settings on record: cited from earlier work.
The test system of another assay is COX-1. On the set-up: method as in PMID 11849848. To be noted: cited from earlier work.
The subject of another assay is E. coli. On the set-up: method as in doi:10.1016/j.sajb.2010.04.010. The settings on record: range given for both compounds; cited from earlier work.
The conditions of assay [16]: read-out: DPPH radical scavenging capacity IC50; cited from earlier work. In general terms: The DPPH test is a chemical assay of radical scavenging.
A further assay relates to COX-2. On the set-up: method as in PMID 11849848. To be noted: cited from earlier work.
The subject of another assay is MDA-MB-231. On the set-up: method as in PMID 34719192. The settings on record: cited from earlier work.
The next assay has as its system S. aureus. To be noted: cited from earlier work.
Assay [17] deals with S. aureus strains (MSSA and MRSA). Kind of assay: Serial broth microdilution, S. aureus strains taken together. In kind it is cell-based. The settings on record: Staphylococcus aureus; reference standard; read-out: MIC, anti-staphylococcal activity.
In a further assay the test system is P. aeruginosa. The settings on record: given for both compounds; cited from earlier work.
Another assay concerns E. faecalis. The settings on record: range given for both compounds; cited from earlier work.
Another assay has as its target α-glucosidase. The settings on record: isolated compounds of Clerodendrum bungei; cited from earlier work.

Values after ≈ are worked out from the molar mass of the structure shown. Where only a bound is given, the exact number is not on record here.

With `CNC(C)C1CCC(N)C(OC2C(N)CC(N)C(OC3OCC(C)(O)C(NC)C3O)C2O)O1` (centres unmarked) [Gentamicin, gentamicin], the MIC – broadly, the lowest concentration that inhibits growth of the organism – in assay [1] (MFBF10402, aerial parts extracts, TTC detection, n.d. = growth inhibition not detected (0.18–11.36 mg/mL)) is 0.3 µg/mL (≈ 0.628 µM); in assay [2], 1.1 µg/mL (≈ 2.3 µM); in assay [4] (ATCC6633, aerial parts extracts, TTC detection, n.d. = growth inhibition not detected (0.18–11.36 mg/mL)) it was below 0.1 µg/mL; in assay [5] (ATCC11778, aerial parts extracts, TTC detection, n.d. = growth inhibition not detected (0.18–11.36 mg/mL)), 1.5 µg/mL (≈ 3.14 µM); in [6], 0.1 µg/mL (≈ 0.209 µM); in assay [14], 0.6 µg/mL (≈ 1.26 µM). In [15], this molecule had an MIC of 0.3 µg/mL (≈ 0.628 µM). Besides, the MBC (in general, the smallest concentration meeting the test's criterion for killing) in [1] (MFBF10402, agar sub-cultivation, n.d. = not detected (0.18–11.36 mg/mL)) is 0.8 µg/mL (≈ 1.68 µM); in [2] (ATCC27853, agar sub-cultivation, n.d. = not detected (0.36–22.73 mg/mL)), 3 µg/mL (≈ 6.28 µM); in assay [3], 4.6 µg/mL (≈ 9.63 µM); in assay [4] (ATCC6633, agar sub-cultivation, n.d. = not detected (0.18–11.36 mg/mL)), 0.2 µg/mL (≈ 0.419 µM); in [5] (ATCC11778, agar sub-cultivation, n.d. = not detected (0.18–11.36 mg/mL)), 1.5 µg/mL (≈ 3.14 µM); in assay [6] (ATCC10536, agar sub-cultivation, n.d. = not detected (0.18–11.36 mg/mL)), 1.5 µg/mL (≈ 3.14 µM). Also, the MBC was 0.8 µg/mL (≈ 1.68 µM) in assay [14] (ATCC6538, agar sub-cultivation, n.d. = not detected) and 0.7 µg/mL (≈ 1.47 µM) in assay [15]. For the same molecule, the growth inhibition zone in [7] is reported as 22.3 ± 0.6 mm; in [8] it was 23.3 ± 0.6 mm; in assay [9], 15.0 ± 0.0 mm; in [10], 21.0 ± 0.0 mm; in assay [11], 24.0 ± 0.0 mm; in assay [12], 24.7 ± 0.6 mm. The molecule further had a growth inhibition zone in [13] of 24.3 ± 0.6 mm.
With `C[C@@H]1O[C@@H](O[C@@H]2[C@@H](O)[C@H](OCCc3ccc(O)c(O)c3)O[C@H](CO)[C@H]2OC(=O)/C=C/c2ccc(O)c(O)c2)[C@H](O)[C@H](O)[C@H]1O` [Verbascoside, Verbascoside (Acteoside)], in the assay on five MRSA strains, the “MIC against five MRSA strains” value was 64 to 256 µg/mL. The 50% inhibitory concentration (IC50) (commonly the point on the concentration scale where inhibition reaches its midpoint) in the assay on COX-1 was above 1000 µM; in assay [16] it was 58.1 µM; in the assay with COX-2, 690 µM; in the assay with MDA-MB-231, 0.159 to 0.258 µM; on α-glucosidase, 500 µM. Besides, the “MIC against E. coli” value with E. coli is 100 to 250 µg/mL. Moreover, the MIC in assay [2], in [17], in assay [6], in assay [14] and in assay [15] was 227 µg/mL (≈ 364 µM) throughout. In addition, the “MIC, anti-staphylococcal activity” value in the assay on S. aureus was 60 µg/mL (≈ 96.1 µM). Also, the “MIC against P. aeruginosa” value with P. aeruginosa was 250 µg/mL (≈ 400 µM). In addition, the “MIC against E. faecalis” value in the assay with E. faecalis is 100 to 150 µg/mL. The same molecule gave a minimum bactericidal concentration (MBC) in assay [15] of 227 µg/mL (≈ 364 µM).

The record behind these values is publication PMC9146695, “Globularia alypum L. and Related Species: LC-MS Profiles and Antidiabetic, Antioxidant, Anti-Inflammatory, Antibacterial and Anticancer Potential” (Pharmaceuticals, 2022).
